Test results taken from patent US7700602B2, “Amino-5,5-diphenylimidazolone derivatives for the inhibition of β-secretase” (Wyeth LLC, priority 2004, dated 2010).

Experiments:
[1] = molecular target: T1, human BACE2 (Homo sapiens, UniProt Q9Y5Z0); assay: Fluorescent Kinetic Assay for Human Recombinant BACE 2 (selectivity BACE1/BACE2); type: biochemical; settings: selectivity BACE1 over BACE2; 1.5 nM human BACE2, 25 μM substrate, pH 4.5;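 note: cleavage rate from the linear slope of fluorescence (excitation 320 nm, emission 420 nm) recorded every 40 s over 30 min at room temperature, sodium acetate buffer with 0.05% CHAPS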
T1 sequence (Q9Y5Z0 63-518): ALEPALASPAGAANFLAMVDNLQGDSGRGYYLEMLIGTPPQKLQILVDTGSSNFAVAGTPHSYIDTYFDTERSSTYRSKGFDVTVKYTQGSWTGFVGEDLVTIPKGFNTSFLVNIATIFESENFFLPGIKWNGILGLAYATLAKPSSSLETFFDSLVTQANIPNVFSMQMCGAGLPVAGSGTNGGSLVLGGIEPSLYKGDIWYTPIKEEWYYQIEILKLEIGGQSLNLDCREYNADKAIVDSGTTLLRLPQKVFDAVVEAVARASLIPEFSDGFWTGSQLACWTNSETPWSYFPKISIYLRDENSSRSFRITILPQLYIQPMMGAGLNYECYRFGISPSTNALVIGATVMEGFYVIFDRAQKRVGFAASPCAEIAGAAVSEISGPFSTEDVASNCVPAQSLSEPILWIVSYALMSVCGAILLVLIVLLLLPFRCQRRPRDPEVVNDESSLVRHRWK

[2] = molecular target: human BACE1 (Homo sapiens, UniProt P56817); assay: Fluorescent kinetic assay, inhibition of BACE1 (WABC-6 peptide substrate); type: biochemical; settings: 10 nM enzyme, 25 μM substrate WABC-6, pH 4.5, room temperature; read-out: IC50 (μM) BACE1;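 note: fluorescence monitored at 320 nm excitation and 420 nm emission every 40 s over 30 min, with the substrate cleavage rate taken from the linear slope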
human BACE1, sequence (P56817 46-501): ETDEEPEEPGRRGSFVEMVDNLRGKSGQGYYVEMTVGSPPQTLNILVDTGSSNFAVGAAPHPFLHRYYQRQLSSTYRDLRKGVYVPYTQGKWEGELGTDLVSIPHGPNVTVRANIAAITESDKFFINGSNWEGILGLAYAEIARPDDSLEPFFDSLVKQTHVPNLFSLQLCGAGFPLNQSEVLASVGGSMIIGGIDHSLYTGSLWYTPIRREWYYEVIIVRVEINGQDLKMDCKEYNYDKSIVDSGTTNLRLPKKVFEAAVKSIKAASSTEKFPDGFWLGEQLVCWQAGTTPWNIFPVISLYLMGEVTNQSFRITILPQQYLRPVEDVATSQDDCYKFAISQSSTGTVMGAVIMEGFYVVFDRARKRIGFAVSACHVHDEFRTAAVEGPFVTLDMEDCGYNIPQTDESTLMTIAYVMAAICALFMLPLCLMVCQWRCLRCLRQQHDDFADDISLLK

| Structure (SMILES) | BACE1/BACE2 selectivity [1] | IC50 [2] | melting point |
| --- | --- | --- | --- |
| CN1C(=O)C(c2cccc(OC(F)(F)F)c2)(c2cccc(-c3cccnc3)c2)N=C1N (stereo not drawn) [Example 25] | II (II = 10-100-fold selectivity) | 0.01 to 0.1 µM | 198 °C |
| CN1C(=O)C(c2cccc(-c3cccnc3)c2)(c2ccc(OC(F)(F)F)c(C(F)(F)F)c2)N=C1N (stereo not drawn) [Example 26] | II (II = 10-100-fold selectivity) | 0.01 to 0.1 µM | 98 °C |
| CCOc1ccc(C2(c3ccc(F)c(-c4cccnc4)c3)N=C(N)N(C)C2=O)cc1OCC (stereo not drawn) [Example 27] | II (II = 10-100-fold selectivity) | 0.01 to 0.1 µM | 99 to 100 °C |
| CN1C(=O)C(c2ccc(OC(F)(F)F)c(Cl)c2)(c2ccc(F)c(-c3cccnc3)c2)N=C1N (stereo not drawn) [Example 28] | II (II = 10-100-fold selectivity) | 0.01 to 0.1 µM | 99 to 102 °C |
| COc1ccc(C2(c3cccc(-c4ccncc4)c3)N=C(N)N(C)C2=O)cc1C (stereo not drawn) [Example 36, 2-Amino-5-(4-methoxy-3-methylphenyl)-3-methyl-5-(3-pyridin-4-ylphenyl)-3,5-dihydro-4H-imidazol-4-one] | III (III = <10-fold selectivity) | 0.01 to 0.1 µM | 175 °C |
| CN1C(=O)C(c2ccc(OC(F)(F)F)c(F)c2)(c2ccc(F)c(-c3cncc(Cl)c3)c2)N=C1N (stereo not drawn) [Example 42] | II (II = 10-100-fold selectivity) | 0.11 to 1 µM | 201 to 203 °C |
| CCOc1ccc(C2(c3cccc(-c4cncnc4)c3)N=C(N)N(C)C2=O)cc1OCC (stereo not drawn) [Example 44] | II (II = 10-100-fold selectivity) | 0.01 to 0.1 µM | 100 to 105 °C |
| CN1C(=O)C(c2ccc(OC(F)(F)F)cc2)(c2ccc(F)c(-c3cncc(Cl)c3)c2)N=C1N (stereo not drawn) [Example 46] | II (II = 10-100-fold selectivity) | 0.11 to 1 µM | 241 to 243 °C |
| CN1C(=O)C(c2ccc(OC(F)(F)F)cc2)(c2ccc(F)c(-c3cncc(F)c3)c2)N=C1N (stereo not drawn) [Example 47] | II (II = 10-100-fold selectivity) | 0.11 to 1 µM | 216 to 218 °C |
| CN1C(=O)C(c2ccc(OC(F)(F)F)cc2)(c2ccc(Cl)c(-c3cncnc3)c2)N=C1N (stereo not drawn) [Example 49] | I (I = >100-fold selectivity) | 0.11 to 1 µM | 124 to 129 °C |
| CN1C(=O)C(c2ccc(OC(F)(F)F)cc2)(c2ccc(F)c(-c3cccnc3)c2)N=C1N (stereo not drawn) [Example 50] | II (II = 10-100-fold selectivity) | 0.01 to 0.1 µM | 134 °C |
| COc1cncc(-c2cccc(C3(c4ccc(OC(F)(F)F)cc4)N=C(N)N(C)C3=O)c2)c1 (stereo not drawn) [Example 51] | III (III = <10-fold selectivity) | 0.01 to 0.1 µM | 212 °C |
| COc1ccc(C2(c3ccc(F)c(-c4cncnc4)c3)N=C(N)N(C)C2=O)cc1C(F)(F)F (stereo not drawn) [Example 56] | I (I = >100-fold selectivity) | 0.01 to 0.1 µM | 115 °C |
| CCOc1ccc(C2(c3ccc(F)c(-c4cncnc4)c3)N=C(N)N(C)C2=O)cc1OCC (stereo not drawn) [Example 86] | I (I = >100-fold selectivity) | 0.01 to 0.1 µM | 95 to 98 °C |
| CN1C(=O)C(c2ccc(SC(F)(F)F)cc2)(c2ccc(F)c(-c3cccnc3F)c2)N=C1N (stereo not drawn) [Example 93] | II (II = 10-100-fold selectivity) | 0.01 to 0.1 µM | 95 °C |
| CN1C(=O)C(c2ccc(SC(F)(F)F)cc2)(c2ccc(F)c(-c3cncnc3)c2)N=C1N (stereo not drawn) [Example 94] | II (II = 10-100-fold selectivity) | 0.11 to 1 µM | 183 °C |
| CN1C(=O)C(c2ccc(OC(F)F)cc2)(c2ccc(F)c(-c3cccnc3)c2)N=C1N (stereo not drawn) [Example 95] | II (II = 10-100-fold selectivity) | 0.01 to 0.1 µM | 104 to 106 °C |
| CN1C(=O)C(c2ccc(OC(F)F)cc2)(c2ccc(F)c(-c3cccnc3F)c2)N=C1N (stereo not drawn) [Example 96] | II (II = 10-100-fold selectivity) | 0.01 to 0.1 µM | 108 to 110 °C |
| CN1C(=O)C(c2ccc(OC(F)F)cc2)(c2ccc(F)c(-c3cncnc3)c2)N=C1N (stereo not drawn) [Example 97] | II (II = 10-100-fold selectivity) | 0.01 to 0.1 µM | 103 to 105 °C |
| CCOc1ccc(C2(c3ccc(F)c(-c4cccnc4)c3)N=C(N)N(C)C2=O)cc1OCC (stereo not drawn) [Example 99] | III (III = <10-fold selectivity) | 0.01 to 0.1 µM | 93 to 95 °C |
| CN1C(=O)C(c2ccc(OCCF)c(OCCF)c2)(c2ccc(F)c(-c3cccnc3F)c2)N=C1N (stereo not drawn) [Example 104, 2-Amino-5-[3,4-bis-(2-fluoro-ethoxy)-phenyl]-5-[4-fluoro-3-(2-fluoro-pyridin-3-yl)-phenyl]-3-methyl-3,5-dihydro-imidazol-4-one] | II (II = 10-100-fold selectivity) | 0.01 to 0.1 µM | 85 to 95 °C |
| CN1C(=O)C(c2ccc(OCCF)cc2)(c2ccc(F)c(-c3cccnc3F)c2)N=C1N (stereo not drawn) [Example 108, 2-Amino-5-[4-(2-fluoroethoxy)phenyl]-5-[4-fluoro-3-(2-fluoropyridin-3-yl)phenyl]-3-methyl-3,5-dihydro-4H-imidazol-4-one] | II (II = 10-100-fold selectivity) | 0.01 to 0.1 µM | 135 °C |
| CN1C(=O)C(c2ccc(OCCF)cc2)(c2ccc(F)c(-c3cncnc3)c2)N=C1N (stereo not drawn) [Example 109] | II (II = 10-100-fold selectivity) | 0.01 to 0.1 µM | 123 °C |
| CN1C(=O)C(c2ccc(OCCF)cc2)(c2cccc(-c3ccc(F)nc3)c2)N=C1N (stereo not drawn) [Example 111] | III (III = <10-fold selectivity) | 0.11 to 1 µM | 100 °C |
| Cc1cc(C2(c3ccc(F)c(-c4cccnc4F)c3)N=C(N)N(C)C2=O)ccc1OCCF (stereo not drawn) [Example 112] | II (II = 10-100-fold selectivity) | 0.01 to 0.1 µM | 105 to 106 °C |
| Cc1cc(C2(c3ccc(F)c(-c4cncnc4)c3)N=C(N)N(C)C2=O)ccc1OCCF (stereo not drawn) [Example 113] | I (I = >100-fold selectivity) | 0.01 to 0.1 µM | 108 to 110 °C |
| Cc1cc(C2(c3cccc(-c4cncnc4)c3)N=C(N)N(C)C2=O)ccc1OCc1ccccc1 (stereo not drawn) [Example 114] | II (II = 10-100-fold selectivity) | 0.01 to 0.1 µM | 107 to 109 °C |
| Cc1cc(C2(c3cccc(-c4cncnc4)c3)N=C(N)N(C)C2=O)ccc1O (stereo not drawn) [Example 115] | II (II = 10-100-fold selectivity) | 0.01 to 0.1 µM | 168 to 170 °C |
| Cc1cc(C2(c3cccc(-c4cncnc4)c3)N=C(N)N(C)C2=O)ccc1OCCF (stereo not drawn) [Example 116] | II (II = 10-100-fold selectivity) | 0.01 to 0.1 µM | 108 to 110 °C |
| Cc1cc(C2(c3cccc(-c4cncnc4)c3)N=C(N)N(C)C2=O)ccc1OCC#N (stereo not drawn) [Example 117] | II (II = 10-100-fold selectivity) | 0.01 to 0.1 µM | 220 to 222 °C |
